Source: patent US20260167620A1, “MULTIFUNCTIONAL COMPOUND CAPABLE OF DEGRADING BTK KINASE, AND COMPOSITION AND USE” (HANGZHOU HEALZEN THERAPEUTICS CO., LTD., priority 2021, published 2026)

Biological target: T1, BTK (Homo sapiens, UniProt Q06187)
T1 construct: endogenous in cells; host or cells: Mino cells
Test: BTK degradation activity test in Mino cells (Westernblot or Elisa)
Assay type: cell-based
Details: 24-72 h incubation
Method: The Mino cell line cells are 0.5˜1 million/well in 6-well plates. The compounds are diluted to different concentrations, added to the plate, and after 24-72 h of incubation, the cells are collected. After the cells were lysed, the total protein concentration in each well was determined with a BCA kit. The amount of BTK is determined using the Westernblot or Elisa method.

T1 sequence (Q06187 whole entry): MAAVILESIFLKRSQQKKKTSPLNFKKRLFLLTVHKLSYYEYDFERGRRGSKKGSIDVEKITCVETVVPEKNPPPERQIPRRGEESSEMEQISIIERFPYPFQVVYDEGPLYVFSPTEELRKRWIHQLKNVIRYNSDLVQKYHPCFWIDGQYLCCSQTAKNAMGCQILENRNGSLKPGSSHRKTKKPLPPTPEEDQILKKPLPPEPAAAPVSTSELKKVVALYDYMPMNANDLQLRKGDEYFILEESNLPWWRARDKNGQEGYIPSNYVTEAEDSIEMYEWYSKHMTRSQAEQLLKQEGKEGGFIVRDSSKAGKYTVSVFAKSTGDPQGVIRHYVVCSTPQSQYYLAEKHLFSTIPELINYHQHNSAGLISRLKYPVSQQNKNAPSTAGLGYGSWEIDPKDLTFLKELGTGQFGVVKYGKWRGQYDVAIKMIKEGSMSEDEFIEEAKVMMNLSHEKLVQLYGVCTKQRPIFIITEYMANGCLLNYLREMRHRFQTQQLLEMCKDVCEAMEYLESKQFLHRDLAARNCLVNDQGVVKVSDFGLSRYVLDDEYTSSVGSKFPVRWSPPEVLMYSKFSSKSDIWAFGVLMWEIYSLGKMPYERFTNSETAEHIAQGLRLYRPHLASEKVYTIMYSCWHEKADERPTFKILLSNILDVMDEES

Structure (SMILES) | DC50
NC(=O)c1cnc(N2CCC[C@@H](O)C2)nc1Nc1ccc(C2CCN(CC3CCN(c4ccc5c(c4)C(=O)N(C4CCC(=O)NC4=O)C5=O)C3)CC2)cc1 (stereo partly drawn) [Compound 035, 4-((4-(1-((1-(2-(2,6-dioxopiperidin-3-yl)-1,3-dioxoisoindolin-5-yl)pyrrolidin-3-yl)methyl)piperidin-4-yl)phenyl)amino)-2-((R)-3-hydroxypiperidin-1-yl) pyrimidine-5-carboxamide] | < 10 nM
Cc1nc(C(N)=O)c(Nc2ccc(C3CCN(CC4CCN(c5ccc6c(c5)C(=O)N(C5CCC(=O)NC5=O)C6=O)C4)CC3)cc2)nc1N1CCCCC1 (stereo not drawn) [Compound 039, 3-((4-(1-((1-(2-(2,6-dioxopiperidin-3-yl)-1,3-dioxoisoindolin-5-yl)pyrrolidin-3-yl)methyl)piperidin-4-yl)phenyl)amino)-6-methyl-5-(piperidin-1-yl) pyrazine-2-carboxamide] | < 10 nM
NC(=O)c1cnc(N[C@H]2CCCC[C@H]2N)nc1Nc1ccc(C2CCN(CC3CCN(c4ccc5c(c4)C(=O)N(C4CCC(=O)NC4=O)C5=O)C3)CC2)cc1 (stereo partly drawn) [Compound 032, 2-(((1S,2R)-2-aminocyclohexyl)amino)-4-((4-(1-((1-(2-(2,6-dioxopiperidin-3-yl)-1,3-dioxoisoindolin-5-yl)pyrrolidin-3-yl)methyl)piperidin-4-yl)phenyl)amino) pyrimidine-5-carboxamide] | < 10 nM
NC(=O)c1nnc(N2CCCCC2)cc1Nc1ccc(C2CCN(CC3CCN(c4ccc5c(c4)C(=O)N(C4CCC(=O)NC4=O)C5=O)C3)CC2)cc1 (stereo not drawn) [Compound 040, 4-((4-(1-((1-(2-(2,6-dioxopiperidin-3-yl)-1,3-dioxoisoindolin-5-yl)pyrrolidin-3-yl)methyl)piperidin-4-yl)phenyl)amino)-6-(piperidin-1-yl) pyridazine-3-carboxamide] | < 10 nM
NC(=O)c1nnc(N2CCCCC2)nc1Nc1ccc(C2CCN(CC3CCN(c4cc5c(cc4F)C(=O)N(C4CCC(=O)NC4=O)C5)C3)CC2)cc1 (stereo not drawn) [Compound 010, 5-((4-(1-((1-(2-(2,6-dioxopiperidin-3-yl)-6-fluoro-1-oxoisoindolin-5-yl)pyrrolidin-3-yl)methyl)piperidin-4-yl)phenyl)amino)-3-(piperidin-1-yl)-1,2,4-triazine-6-carboxamide] | < 10 nM
CC(=O)N[C@@H]1CCCN(c2nnc(C(N)=O)c(Nc3ccc(N4CCN(CC5CCN(c6ccc(-c7ccc(=O)[nH]n7)cc6C(F)(F)F)CC5)CC4)c(F)c3)n2)C1 [Compound 095, (R)-3-(3-acetamidopiperidin-1-yl)-5-((3-fluoro-4-(4-((1-(4-(6-oxo-1,6-dihydropyridazin-3-yl)-2-(trifluoromethyl)phenyl)piperidin-4-yl)methyl)piperazin-1-yl)phenyl)amino)-1,2,4-triazine-6-carboxamide] | < 10 nM
CC(OC(=O)C(C)(C)C)N1C(=O)CCC(N2C(=O)c3ccc(N4CCC(CN5CCC(c6ccc(Nc7nc(N8CCCCC8)nnc7C(N)=O)cc6)CC5)C4)cc3C2=O)C1=O (stereo not drawn) [Compound 069, 1-(3-(5-(3-((4-(4-((6-carbamoyl-3-(piperidin-1-yl)-1,2,4-triazin-5-yl)amino)phenyl)piperidin-1-yl)methyl)pyrrolidin-1-yl)-1,3-dioxoisoindolin-2-yl)-2,6-dioxopiperidin-1-yl) ethyl pivalate] | < 10 nM
NC(=O)c1nnc(N2CCOCC2)nc1Nc1ccc(N2CCN(CC3CCN(c4ncc(-c5ccc(=O)[nH]n5)cc4C(F)(F)F)CC3)CC2)c(F)c1 [Compound 102, 5-((3-fluoro-4-(4-((1-(5-(6-oxo-1,6-dihydropyridazin-3-yl)-3-(trifluoromethyl)pyridin-2-yl)piperidin-4-yl)methyl)piperazin-1-yl)phenyl)amino)-3-morpholino-1,2,4-triazine-6-carboxamide] | < 10 nM
CC(C)(C)C(=O)OCN1C(=O)CCC(N2C(=O)c3ccc(N4CCC(CN5CCC(c6ccc(Nc7nc(N8CCCCC8)nnc7C(N)=O)cc6F)CC5)C4)cc3C2=O)C1=O (stereo not drawn) [Compound 068, (3-(5-(3-((4-(4-((6-carbamoyl-3-(piperidin-1-yl)-1,2,4-triazin-5-yl)amino)-2-fluorophenyl)piperidin-1-yl)methyl)pyrrolidin-1-yl)-1,3-dioxoisoindolin-2-yl)-2,6-dioxopiperidin-1-yl) methyl pivalate] | < 10 nM
NC(=O)c1nnc(N2CCNCC2)nc1Nc1ccc(C2CCN(CC3CCN(c4ccc5c(c4)C(=O)N(C4CCC(=O)NC4=O)C5=O)C3)CC2)cc1 (stereo not drawn) [Compound 031, 5-((4-(1-((1-(2-(2,6-dioxopiperidin-3-yl)-1,3-dioxoisoindolin-5-yl)pyrrolidin-3-yl)methyl)piperidin-4-yl)phenyl)amino)-3-(piperazin-1-yl)-1,2,4-triazine-6-carboxamide] | < 10 nM

Now from value to compound:

DC50 | Structure (SMILES)
< 10 nM | NC(=O)c1nnc(N2CCC[C@@H](O)C2)nc1Nc1ccc(C2CCN(CC3CCN(c4ccc5c(c4)C(=O)N(C4CCC(=O)NC4=O)C5=O)C3)CC2)cc1 (stereo partly drawn) [Compound 015, 5-((4-(1-((1-(2-(2,6-dioxopiperidin-3-yl)-1,3-dioxoisoindolin-5-yl)pyrrolidin-3-yl)methyl)piperidin-4-yl)phenyl)amino)-3-((R)-3-hydroxypiperidin-1-yl)-1,2,4-triazine-6-carboxamide]
< 10 nM | NC(=O)c1nnc(N2CCCCC2)nc1Nc1ccc(N2CCN(CC3CN(c4ccc5c(c4)C(=O)N(C4CCC(=O)NC4=O)C5=O)C3)CC2)cc1 (stereo not drawn) [Compound 006, 5-((4-(4-((1-(2-(2,6-dioxopiperidin-3-yl)-1,3-dioxoisoindolin-5-yl)azetidin-3-yl)methyl)piperazin-1-yl)phenyl)amino)-3-(piperidin-1-yl)-1,2,4-triazine-6-carboxamide]
< 10 nM | NC(=O)c1nnc(N2CCCCC2)nc1Nc1ccc(C2CCN(C(=O)C3CCN(c4ccc5c(c4)C(=O)N(C4CCC(=O)NC4=O)C5=O)C3)CC2)cc1 (stereo not drawn) [Compound 055, 5-((4-(1-(1-(2-(2,6-dioxopiperidin-3-yl)-1,3-dioxoisoindolin-5-yl)pyrrolidine-3-carbonyl)piperidin-4-yl)phenyl)amino)-3-(piperidin-1-yl)-1,2,4-triazine-6-carboxamide]
< 10 nM | NC(=O)c1cnc(N2CCCCC2)cc1Nc1ccc(C2CCN(CC3CCN(c4ccc5c(c4)C(=O)N(C4CCC(=O)NC4=O)C5=O)C3)CC2)cc1 (stereo not drawn) [Compound 038, 4-((4-(1-((1-(2-(2,6-dioxopiperidin-3-yl)-1,3-dioxoisoindolin-5-yl)pyrrolidin-3-yl)methyl)piperidin-4-yl)phenyl)amino)-6-(piperidin-1-yl) nicotinamide]
< 10 nM | NC(=O)c1nnc(Oc2cccc(O)c2)nc1Nc1ccc(C2CCN(CC3CCN(c4ccc5c(c4)C(=O)N(C4CCC(=O)NC4=O)C5=O)C3)CC2)cc1 (stereo not drawn) [Compound 027, 5-((4-(m-((1-(2-(2,6-dioxopiperidin-3-yl)-1,3-dioxoisoindolin-5-yl)pyrrolidin-3-yl)methyl)piperidin-4-yl)phenyl)amino)-3-(3-hydroxyphenoxy)-1,2,4-triazine-6-carboxamide]
< 10 nM | NC(=O)c1nnc(-c2ncc[nH]2)nc1Nc1ccc(C2CCN(CC3CCN(c4ccc5c(c4)C(=O)N(C4CCC(=O)NC4=O)C5=O)C3)CC2)cc1 (stereo not drawn) [Compound 025, 5-((4-(1-((1-(2-(2,6-dioxopiperidin-3-yl)-1,3-dioxoisoindolin-5-yl)pyrrolidin-3-yl)methyl)piperidin-4-yl)phenyl)amino)-3-(1H-imidazol-2-yl)-1,2,4-triazine-6-carboxamide]
< 10 nM | NC(=O)c1nnc(N2CCOCC2)nc1Nc1ccc(N2CCN(CC3CCN(c4ccc(C(=O)NC5CCC(=O)NC5=O)c(F)c4)CC3)CC2)c(F)c1 (stereo not drawn) [Compound 101, 5-((4-(4-((1-(4-((2,6-dioxopiperidin-3-yl)carbamoyl)-3-fluorophenyl)piperidin-4-yl)methyl)piperazin-1-yl)-3-fluorophenyl)amino)-3-morpholino-1,2,4-triazine-6-carboxamide]
< 10 nM | CC(=O)N[C@@H]1CCCN(c2nnc(C(N)=O)c(Nc3ccc(N4CCN(CC5CCN(c6ccc(N7CCC(=O)NC7=O)cc6)CC5)CC4)c(F)c3)n2)C1 [Compound 091, (R)-3-(3-acetamidopiperidin-1-yl)-5-((4-(4-((1-(4-(2,4-dioxotetrahydropyrimidin-1(2H)-yl)phenyl)piperidin-4-yl)methyl)piperazin-1-yl)-3-fluorophenyl)amino)-1,2,4-triazine-6-carboxamide]
< 10 nM | NC(=O)c1nnc(N2CC[C@@H](O)C2)nc1Nc1ccc(C2CCN(CC3CCN(c4ccc5c(c4)C(=O)N(C4CCC(=O)NC4=O)C5=O)C3)CC2)cc1 (stereo partly drawn) [Compound 022, 5-((4-(1-((1-(2-(2,6-dioxopiperidin-3-yl)-1,3-dioxoisoindolin-5-yl)pyrrolidin-3-yl)methyl)piperidin-4-yl)phenyl)amino)-3-((R)-3-hydroxypyrrolidin-1-yl)-1,2,4-triazine-6-carboxamide]
< 10 nM | CC(OC(=O)C(C)(C)C)N1C(=O)CCC(N2C(=O)c3ccc(N4CCC(CN5CCC(c6ccc(Nc7nc(N8CCN(C)CC8)nnc7C(N)=O)cc6)CC5)C4)cc3C2=O)C1=O (stereo not drawn) [Compound 070, 1-(3-(5-(3-((4-(4-((6-carbamoyl-3-(4-methylpiperazin-1-yl)-1,2,4-triazin-5-yl)amino)phenyl)piperidin-1-yl)methyl)pyrrolidin-1-yl)-1,3-dioxoisoindolin-2-yl)-2,6-dioxopiperidin-1-yl) ethyl pivalate]
< 10 nM | NC(=O)c1nnc(N2CCCCC2)nc1Nc1ccc(N2CCN(C(=O)C3CCN(c4ccc5c(c4)C(=O)N(C4CCC(=O)NC4=O)C5=O)CC3)CC2)cc1 (stereo not drawn) [Compound 058, 5-((4-(4-(1-(2-(2,6-dioxopiperidin-3-yl)-1,3-dioxoisoindolin-5-yl)piperidine-4-carbonyl)piperazin-1-yl)phenyl)amino)-3-(piperidin-1-yl)-1,2,4-triazine-6-carboxamide]
